Literature values as cited in patent US20040053963A1, “Urotensin-II receptor antagonists” (priority 2003, published 2004).

Tested on: rat-isolated aorta
Settings: Ames et. al. Nature 1999, 401, 282

Question: Which contractile activity does the source give for `CC(C)[C@H](NC(=O)[C@@H]1CSSC[C@H](NC(=O)[C@H](CC(=O)O)NC(=O)[C@@H]2CCCN2C(=O)[C@@H](NC(=O)[C@@H](N)CCC(=O)O)[C@@H](C)O)C(=O)N[C@@H](Cc2ccccc2)C(=O)N[C@@H](Cc2c[nH]c3ccccc23)C(=O)N[C@@H](CCCCN)C(=O)N[C@@H](Cc2ccc(O)cc2)C(=O)N1)C(=O)O` [Human Urotensin-II] here?
Answer: most potent contractile agonist identified to date
